Assay results reported in patent publication US12037612B2, “High throughput reaction assembly” (priority 2018, dated 2024).

Experiments:
[1] = test system: reverse transcriptase (Luna RT); test: cDNA synthesis with dye in the cDNA reaction, read out by qPCR (GAPDH); format: biochemical; conditions: increasing dye in the cDNA reaction, final concentration 0.004%, 0.008%, 0.012%, 0.016%, 0.023%; Jurkat total RNA template
Method: 5-log dilutions of Jurkat total RNA (1 ug, 100 ng, 10 ng, 1 ng, 100 pg) were used as the template RNA for cDNA synthesis using Luna RT in the presence of xylene cyanol at a final concentration of 0%, 0.004%, 0.008%, 0.012%, 0.016%, or 0.023%, or Xylene cyanol and tartrazine both in the concentration range described above. […] 10 minutes, and 95° C. 1 minute. 1 ul cDNA library was added to a qPCR reaction mixture containing Taq polymerase and specific primers were added to detect GAPDH.

[2] = molecular target: T1, Taq polymerase (Thermus aquaticus, UniProt P19821); test: qPCR (GAPDH detection) with dye added directly into the qPCR reaction; format: biochemical; conditions: increasing dye in the qPCR reaction, final concentration 0.004%, 0.008%, 0.012%, 0.016%, 0.023%; Jurkat total RNA template
T1 construct: purchased New England Biolabs, Ipswich, MA
T1 sequence (P19821 whole entry): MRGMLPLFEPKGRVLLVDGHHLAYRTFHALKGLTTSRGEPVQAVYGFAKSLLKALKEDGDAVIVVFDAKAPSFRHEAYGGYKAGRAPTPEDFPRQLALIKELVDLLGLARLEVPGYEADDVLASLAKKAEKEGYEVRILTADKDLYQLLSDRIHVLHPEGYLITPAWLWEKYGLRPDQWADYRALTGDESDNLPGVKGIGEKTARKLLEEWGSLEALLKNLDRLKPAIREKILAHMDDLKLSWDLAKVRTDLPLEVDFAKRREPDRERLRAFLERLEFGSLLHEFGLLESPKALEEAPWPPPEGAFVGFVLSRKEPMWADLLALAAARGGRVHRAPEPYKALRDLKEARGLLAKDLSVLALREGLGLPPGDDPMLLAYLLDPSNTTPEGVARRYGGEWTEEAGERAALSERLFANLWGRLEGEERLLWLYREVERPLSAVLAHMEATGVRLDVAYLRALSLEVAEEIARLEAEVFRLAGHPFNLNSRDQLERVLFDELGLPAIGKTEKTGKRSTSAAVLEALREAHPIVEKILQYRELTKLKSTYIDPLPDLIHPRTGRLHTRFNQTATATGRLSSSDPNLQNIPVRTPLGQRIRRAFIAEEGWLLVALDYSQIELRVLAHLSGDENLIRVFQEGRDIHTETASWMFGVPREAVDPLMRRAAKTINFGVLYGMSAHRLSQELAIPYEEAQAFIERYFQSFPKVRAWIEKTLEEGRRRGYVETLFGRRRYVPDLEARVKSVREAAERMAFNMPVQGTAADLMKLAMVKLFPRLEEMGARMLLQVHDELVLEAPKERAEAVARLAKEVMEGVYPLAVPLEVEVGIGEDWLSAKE
Method: Dyes at a concentration of 0.0003% in a qPCR mix were found not to inhibit Taq polymerase in a qPCR mix in a manner that was detrimental to the reaction. 5-log dilutions of Jurkat total RNA (1 ug, 100 ng, 10 ng, 1 ng, 100 pg) were used as the template RNA for cDNA synthesis using a commercially available thermostable reverse transcriptase (Luna RT). […] 10 minutes, and 95° C. 1 minute. 1 ul cDNA library was added to a qPCR reaction mixture containing Taq polymerase (Luna® Universal qPCR Master Mix (New England Biolabs, Ipswich, MA)) and specific primers were added to detect glyceraldehyde 3-phosphate dehydrogenase (GAPDH) in the presence of xylene cyanol at a final concentration of 0%, 0.004%, 0.008%, 0.012%, 0.016%, or 0.023%, or Xylene cyanol and tartrazine both in the concentration range described above.

SMILES: CCN=C1C=CC(=C(c2ccc(NCC)c(C)c2)c2ccc(S(=O)(=O)[O-])cc2S(=O)(=O)O)C=C1C.[Na+] [xylene cyanol]
- Cq value / inhibition of the reverse transcriptase [1]: did not change the Cq value, indicating that no detectable inhibition of the reverse transcriptase occurred
- Cq value in qPCR / inhibition of Taq polymerase [2]: higher Cq value, indicating stronger inhibition of Taq polymerase
